Experimental data taken from PubChem BioAssay AID2305 (GlaxoSmithKline (GSK), 2010).
pIC50: −log10 of the molar value.

tested on: P. falciparum 3D7 growth, pLDH absorbance; assay: P. falciparum 3D7 growth inhibition, dose response, strain 3D7 (AID 2305)

SMILES	pIC50
O=C(Nc1cccc(C2=NCCN2)c1)Nc1cccc(C2=NCCN2)c1	6.38
CC(=O)Nc1ccc(C(=O)Nc2cccc(-c3cccc(-c4nc5ccccc5[nH]4)c3)c2)cn1	6.70
CCOC(=O)c1ccc(NC(=O)Nc2ccc(-c3cccc(-c4nc5ccccc5[nH]4)c3)cc2)cc1	6.85
CCCCCC(C)N=C(Nc1ccc([N+](=O)[O-])cc1O)Nc1ccccc1Br (stereo not drawn)	6.21
Cc1cccc2[nH]c(-c3ccc(-c4cccc(CN5CCC(CCN6CCCCC6)CC5)c4)s3)nc12	6.85
O=S(=O)(NCCN1CCCC1)c1ccc(-c2ccc(CNCc3ccccc3)cc2)cc1F	5.89
CCN(CC)CCCNc1ncc2c(-c3ccc(NC(=O)Nc4cc(C(F)(F)F)ccc4F)c(F)c3)nn(C)c2n1	6.57
c1nc2nc3c(c(Nc4ccc5c(c4)CCC5)n2n1)CCC3	6.04
COc1ccc(CN(C)CCCCc2ccc(NC(=O)COc3cccc4sc5ccccc5c(=O)c34)cc2)cc1OC	6.09
NC(=O)C1CCN(Cc2cccc(-c3ccc(-c4nc5ccc(C(F)(F)F)cc5[nH]4)cc3)c2)CC1	6.21
COc1ccc(NC(=O)[C@H](CC(C)C)Nc2cc(C)nc(NCCc3ccccc3OC)n2)cc1	6.00
O=C(Nc1cccc(-c2cccc(-c3nc4ccc(F)cc4[nH]3)c2)c1)c1ccoc1	6.48
NC(=O)c1cccc(C(=O)Nc2cccc(-c3cccc(-c4nc5ccccc5[nH]4)c3)c2)c1	6.26
CN(c1ccc(NC(=O)Nc2cc(C(C)(C)C)on2)cc1)c1ccnc(NCCN2CCOCC2)n1	5.95
c1ccc(C2CCC(N3CCC(N4CCCC4)CC3)CC2)cc1 (stereo not drawn)	6.17
CN1CCN(CCCN(Cc2cccc(-c3ccc(CNC4CCCC4)cc3)c2)C(=O)CCC2CCCC2)CC1	6.12
NC(N)=NCC=C(c1ccccc1)c1ccccc1	6.00
COc1cccc(-c2cccc(CNC3CCN(CC4Cn5c(=O)ccc6ccc(F)c4c65)CC3)c2)c1 (stereo not drawn)	6.03
CN(CCCCNC(=O)c1cc2ccccc2[nH]1)C1CC2(CCN(C(=O)OC(C)(C)C)CC2)c2ccccc21 (stereo not drawn)	6.03
Cc1ccc(Nc2nccc(NCC(O)c3cccc(C)c3)n2)cc1 (stereo not drawn)	5.99
NCCc1cccc(-c2cnc3[nH]cc(-c4ccc(C(=O)O)cc4)c3c2)c1	6.40
Cc1[nH]c2ccccc2c1C1=CCN(CCCCC2(C)C(=O)Nc3cccc(F)c32)CC1 (stereo not drawn)	6.44
Cc1nc(-c2nc(N3CCC(C(N)=O)CC3)ncc2-c2ccsc2)sc1C	6.05
CCCCCCCOc1ccc(NC(=O)Nc2ccc(Cn3ncc(N4CCCNCC4)c(Cl)c3=O)cc2)cc1	6.04
CS(=O)(=O)c1ccc(CNCc2ccc(-c3ccc(-c4nc5ccc(C(F)(F)F)cc5[nH]4)cc3)cc2)cc1	6.15

SMILES	pIC50
COc1c(C2CCN(CCCCNC(=O)c3cccc(-c4ccc(C(F)(F)F)cc4)c3)CC2)ccc2c1CCCC2	6.11
CC(=O)c1ccc2c(c1)CCN(CCC1CCC(NC(=O)c3cc4ccccc4[nH]3)CC1)CC2 (stereo not drawn)	6.01
CCC(CC)OC(=O)C(C)c1cccc(C(=O)c2ccccc2)c1 (stereo not drawn)	6.08
Fc1cccc(COc2ccc(Nc3ncnc4sc(C#C[C@H]5CC[C@H](CNCC(F)(F)F)N5)cc34)cc2Cl)c1	5.85
CCOC(C(=O)OCC1CCCN(C)C1)(c1ccccc1)c1ccccc1 (stereo not drawn)	6.06
COc1cc(CNCCCCCCNCc2cc(OC)c(OC)c3ccccc23)c2ccccc2c1OC	6.64
O=C(NCCCCCN1CCC(c2c[nH]c3ccccc23)CC1)Nc1cccc(I)c1	6.00
CCc1ccc(CN2CCC(CNC(=O)c3cc(-c4cccc(F)c4)cs3)C2)cc1 (stereo not drawn)	5.87
O=C(Nc1ccc(CCNC2=NCCN2)cc1)Nc1ccc(CCNC2=NCCN2)cc1	6.10
CCc1ccc(CN(Cc2ccc(C)cc2)Cc2ccc(NC(C)=O)cc2)cc1	6.02
CN1CCN(CCCN(Cc2ccc(-c3cccc(CNCc4ccc5c(c4)OCO5)c3)cc2)C(=O)NC2CCCCC2)CC1	6.00
O=C(Nc1ccc(Cl)c(Cl)c1)Nc1ccc2nccc(N3CCNCC3)c2c1	6.59
CC(C)c1ncc(-c2ccncc2)c(C2CCC(CNC(=O)c3cccnc3)CC2)n1 (stereo not drawn)	6.11
CNC(=O)c1cnc(Nc2ccc(OCC(O)CN(C)C)cc2)nc1Nc1cccc(OC)c1 (stereo not drawn)	6.49
COc1cccc(C2CCN(CCN3CCC(CNC(=O)c4ccc(-c5ccc(C(F)(F)F)cc5)cc4)CC3)CC2)c1	6.05
CC(=NNC(=S)NCCc1ccccc1)c1ccccn1	6.66
COCCN1CCN(Cc2ccc(-c3ccc(-c4nc5c(C)cccc5[nH]4)s3)cc2)CC1	6.07
CC(C)COc1cc(C(=O)Nc2cnc3ccccc3c2)ccc1[N+](=O)[O-]	6.11
CC(=O)N(Cc1cccc(-c2cccc(CNCCc3ccccc3)c2)c1)C1CCN(Cc2ccccc2)CC1	6.17
Nc1cccc(CNCc2ccc(-c3cccc(-c4nc5ccccc5[nH]4)c3)cc2)c1	6.15
COc1ccc(Nc2nccc(N3CCC(NC(=O)Nc4cccc(C(C)=O)c4)C3)n2)cc1 (stereo not drawn)	6.09
Cc1cc(O)c(C(C)C)cc1C1(c2cc(C(C)C)c(O)cc2C)OC(=O)c2ccccc21	6.06
Clc1ccc(Nc2nc(NCc3ccccc3)nc(N/N=C/c3ccccn3)n2)cc1	6.11
FC(F)(F)c1ccc(COc2cc(Cl)ccc2Cn2ccnc2)cc1	6.19
NC1CCCN(Cc2cccc(-c3ccc(-c4nc5ccccc5[nH]4)s3)c2)C1 (stereo not drawn)	6.24

SMILES	pIC50
O=C(NCCN1CCCC1)N1CCCN(c2ncnc3cc(-c4ccc(Cl)cc4)sc23)CC1	6.04
CN1CCC(O)(c2ccc(Br)cc2)C(C(O)c2ccc(Br)cc2)C1 (stereo not drawn)	6.14
O=C(/C=C/c1ccc(Cl)cc1)NCCCCCN1CCC(C(=O)Nc2cccc(Cl)c2)CC1	6.07
O=C(CNC(=O)c1ccc(O)cc1)Nc1cccc(-c2cccc(-c3nc4ccc(C(F)(F)F)cc4[nH]3)c2)c1	5.98
O=C(Cc1ccccn1)Nc1cccc(-c2cccc(-c3nc4ccc(C(F)(F)F)cc4[nH]3)c2)c1	6.21
Cc1cc(C)c(NC(=O)N[C@H]2CCN(CCCCCNC(=O)/C=C/c3ccc(Cl)c(Cl)c3)C2)c(C)c1	6.02
CC(=O)Nc1ccc(NC(=O)c2cc(-c3cc(Cl)ccc3O)n[nH]2)cc1	6.74
COc1ccc(-c2ccc(NC(=O)c3ccc(Cl)cc3)cc2)cc1CN1CCCN(C)CC1	6.19
C=CCOC(=O)N1CCC(CNCc2ccc(-c3cccc(-c4nc5ccccc5[nH]4)c3)cc2)C1 (stereo not drawn)	6.60
O=C(NC1CCN(CCc2c[nH]c3ccc(F)cc23)CC1)c1ncc(-c2ccccc2)[nH]1	6.06
Cc1c(C(=O)NCc2ccncc2)sc2nc(-c3cccc([N+](=O)[O-])c3)cn12	6.04
CCOc1ccc(C(=O)Nc2cc(Cl)ccc2O)cc1Cl	6.15
Cc1cccc2[nH]c(-c3ccc(-c4ccc(CNCc5cccc(N)c5)cc4)cc3)nc12	6.24
O=C(Nc1cc(C(F)(F)F)ccc1N1CCOCC1)C(Cl)(Cl)Cl	6.43
CC(C)(NCc1ccc(OC(F)(F)F)cc1)c1nc(-c2ccc(Cl)c(O)c2)c(-c2ccncc2)[nH]1	6.03
FC(F)(F)c1ccc2nc(-c3ccc(-c4cccc(CNCCc5ccncc5)c4)s3)[nH]c2c1	6.92
O=C(c1ccc(O)c(-c2cc(Cl)cc(Cl)c2)c1)N1CCCC1	6.00
CC[C@H](C)CNC(=O)c1cncc(-c2cccc(CNCCCc3ccccc3)c2)c1	5.93
C[C@@H](CC1CCCCC1)OC(=O)N(C)[C@@H]1CCN(C#N)C1	6.21
CCc1ccnc2c(N3CCCC3=O)cc(C(=O)N[C@@H](Cc3ccccc3)[C@H](O)CNC3CCOCC3)cc12	6.42
CN1C(=CC(=O)NC(=O)c2ccccc2)C(C)(C)c2ccccc21	6.19
CC(C)CNCc1cccc(-c2cccc(CNCCCN3CCN(C)CC3)c2)c1	5.93
COc1cc(OC)cc(-c2nc3c(C#N)c(OCCN(C)C)ccc3[nH]2)c1	6.19
CCCCCN1CCCC(CNS(=O)(=O)c2cccc(C(=O)Nc3ccc(C(F)(F)F)cc3)c2)C1 (stereo not drawn)	6.08
CN(C)CCOc1ccc(/C(=C(/CCCn2ccnc2)c2ccccc2)c2ccc(O)cc2)cc1	6.11

SMILES	pIC50
CCCC1N=C(N)N=C(N)N1c1ccc(C)c(C)c1 (stereo not drawn)	7.15
Fc1ccc2nc(-c3ccc(-c4ccc(CN5CCC(CCN6CCCCC6)CC5)cc4)s3)[nH]c2c1	6.85
Cc1noc(C)c1-c1cccc(CNCc2ccc(-c3cccc(-c4nc5ccc(F)cc5[nH]4)c3)cc2)c1	6.26
COc1ccccc1NC(=S)N/N=C/c1ccc(O)cc1O	5.99
O=C(N[C@@H](Cc1ccccc1)C(=O)NC1CCCCCC1)c1ccc(O)c(-c2cccc(C(F)(F)F)c2)c1	6.14
O=C(Nc1ccc(Br)cc1)N1CCC(n2c(-c3ccccc3)nc3cccnc32)CC1	6.12
CC(C)NCc1ccc(-c2ccc(NC(=O)c3cccc(Cl)c3)cc2)cc1	6.02
CCCCCCNC(=O)C1Cc2c([nH]c3cc(Cl)ccc23)C2(CCN(Cc3ccccc3)CC2)N1 (stereo not drawn)	6.05
O=C(Nc1ccc(Cl)cc1)Nc1nc2ccc([N+](=O)[O-])cc2[nH]1	6.10
C(=N\Nc1nccc2sc(-c3cccnc3)cc12)/c1cccnc1	6.38
CN1CCN(c2ccc(Nc3ccnc4ccc(-c5ccccc5)cc34)cc2)CC1	7.05
FC(F)(F)c1cccc(NC(=S)NN=Cc2ccccn2)c1	6.46
O=C(Nc1cccc(CN2CCCN(Cc3cccc(Cl)c3)CC2)c1)c1ccc(Cl)c(Cl)c1	6.00
CCN(CC)CCNc1cc(C)nc(/N=C(\N)Nc2ccc(Cl)cc2)n1	6.89
COc1ccc2nccc([C@@H](O)CN3CCC(NCc4ccc5c(c4)sc(=O)n5C)CC3)c2c1	6.59
CS(=O)(=O)c1ccc2c(c1)CCN(CCC1CCC(NC(=O)C(=Cc3ccc(Cl)cc3Cl)c3ccc(-c4ccccc4)cc3)CC1)CC2 (stereo not drawn)	5.93
Cc1cc(NC(=O)c2ccco2)ccc1OC1CCN(Cc2ccc(F)cc2)C1 (stereo not drawn)	6.19
CCCCCC(C)C(C)c1cc(O)c2c3c(c(=O)oc2c1)CN(Cc1ccccc1)CC3 (stereo not drawn)	6.22
Cc1ccc(O)c(C(=O)c2cc(C(=O)Nc3ccccc3C)c(=O)n(-c3ccccc3C)c2)c1	6.11
CCc1c(C(=O)NC2CCC(N3CCC(c4ccccc4OC)CC3)CC2)[nH]c2ccc(Br)cc12 (stereo not drawn)	5.95
Cc1ccc(C(=O)Nc2ccnc(N(C)C3CCN(Cc4cccc(O)c4)CC3)c2)cn1	5.73
CC(=O)c1c[nH]c(C(=O)Nc2ccc(-c3cn4ccccc4n3)cc2)c1	6.05
Cc1ccc(NC(=O)Nc2ccc(Br)cc2)cc1OCCN(C)C	6.01
